Test results reported in patent US20160375006A1, “USES OF PARALOG-SELECTIVE INHIBITORS OF GSK3 KINASES” (priority 2012, published 2016).
Like-named read-outs stand apart in the source and are kept apart here.

Legend:
[1] = target: T1, HIPK4 (Homo sapiens, UniProt Q8NE63); assay: Carna kinase panel; format: biochemical
T1 construct: purchased Carna Biosciences
Procedure: (§1) This was completed utilizing one of two assays depending on the kinase being examined.
(§2) A solution of IMAP binding reagent (IMAP Screening Express kit; Molecular Devices) (60 μL) was added to each well and incubated for 30 minutes.
(§3) A solution of termination buffer (QuickScout Screening assist MSA; Carna Biosciences) (60 μL) was added to each well. The entire reaction mixture was then applied to a LabChip3000 system (Caliper Life Science) and the product and substrate peptide peaks were separated and quantified.

[2] = target: T2, MELK (Homo sapiens, UniProt Q14680); assay: Carna kinase panel; format: biochemical
T2 construct: purchased Carna Biosciences
Procedure: as §1, §2, §3

[3] = target: T3, RSK3 (Homo sapiens, UniProt Q15349); assay: Carna kinase panel; format: biochemical
T3 construct: purchased Carna Biosciences
Procedure: as §1, §2, §3

[4] = target: CDK3/CycE1 (Homo sapiens, UniProt Q00526)
Chain of CDK3/CycE1 (Q00526 whole entry): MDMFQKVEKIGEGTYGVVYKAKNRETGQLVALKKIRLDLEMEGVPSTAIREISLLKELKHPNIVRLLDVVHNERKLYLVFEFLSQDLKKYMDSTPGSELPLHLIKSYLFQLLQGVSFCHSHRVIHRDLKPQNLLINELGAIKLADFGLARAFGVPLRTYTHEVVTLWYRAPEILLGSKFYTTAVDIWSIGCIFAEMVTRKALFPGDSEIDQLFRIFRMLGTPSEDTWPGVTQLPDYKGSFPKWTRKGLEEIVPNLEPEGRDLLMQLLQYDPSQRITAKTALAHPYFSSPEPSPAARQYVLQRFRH
Chain of CDK3/CycE1 (P24864 whole entry partner): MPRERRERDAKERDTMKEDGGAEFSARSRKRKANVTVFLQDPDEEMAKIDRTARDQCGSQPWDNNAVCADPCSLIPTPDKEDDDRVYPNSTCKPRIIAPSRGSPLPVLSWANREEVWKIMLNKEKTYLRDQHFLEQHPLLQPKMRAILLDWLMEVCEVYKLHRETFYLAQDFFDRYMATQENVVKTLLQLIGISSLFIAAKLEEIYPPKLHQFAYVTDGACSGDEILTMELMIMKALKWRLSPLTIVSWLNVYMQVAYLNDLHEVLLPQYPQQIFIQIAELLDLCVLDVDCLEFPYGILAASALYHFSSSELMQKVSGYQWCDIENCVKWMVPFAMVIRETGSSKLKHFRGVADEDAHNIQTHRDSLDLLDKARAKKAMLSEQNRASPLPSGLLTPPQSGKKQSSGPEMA
Procedure: as §1, §2, §3
(§4) The assay utilized was identical to that of the single point inhibitory activity determination (MSA) but run in dose response. […] A solution of termination buffer (QuickScout Screening assist MSA; Carna Biosciences) (60 μL) was added to each well. The entire reaction mixture was then applied to a LabChip3000 system (Caliper Life Science) and the product and substrate peptide peaks were separated and quantified.

[5] = target: DYRK3 (Homo sapiens, UniProt O43781)
Chain of DYRK3 (O43781 whole entry): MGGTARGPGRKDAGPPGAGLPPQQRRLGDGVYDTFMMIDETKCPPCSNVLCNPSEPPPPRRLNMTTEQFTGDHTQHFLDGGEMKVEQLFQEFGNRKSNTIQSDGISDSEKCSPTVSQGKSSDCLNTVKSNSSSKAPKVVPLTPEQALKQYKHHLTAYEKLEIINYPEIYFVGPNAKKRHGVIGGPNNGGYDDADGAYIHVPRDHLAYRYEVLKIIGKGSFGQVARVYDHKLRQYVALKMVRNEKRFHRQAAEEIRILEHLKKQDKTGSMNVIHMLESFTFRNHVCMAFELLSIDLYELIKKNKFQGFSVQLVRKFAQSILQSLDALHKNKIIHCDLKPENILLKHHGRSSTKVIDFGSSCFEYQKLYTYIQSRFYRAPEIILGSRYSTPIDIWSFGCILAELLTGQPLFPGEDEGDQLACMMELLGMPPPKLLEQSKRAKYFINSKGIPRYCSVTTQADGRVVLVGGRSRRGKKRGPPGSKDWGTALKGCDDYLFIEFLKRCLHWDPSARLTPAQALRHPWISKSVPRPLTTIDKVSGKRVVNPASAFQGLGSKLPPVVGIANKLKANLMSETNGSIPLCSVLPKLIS
Procedure: as §1, §2, §3, §4

[6] = target: MAP3K3_Cascade (Homo sapiens, UniProt Q99759)
Procedure: as §1, §3
The assay utilized was identical to that of the single point inhibitory activity determination (MSA) but run in dose response.

[7] = target: MARK1 (Homo sapiens, UniProt Q9P0L2)
Procedure: as §1, §2, §3, §4

[8] = target: BRSK2 (Homo sapiens, UniProt Q8IWQ3)
Procedure: as §1, §2, §3, §4

[9] = target: PKN1 (Homo sapiens, UniProt Q16512)
Procedure: as §1, §2, §3, §4

[10] = target: PEK (Homo sapiens, UniProt Q9NZJ5)
Procedure: as §1, §2, §3

[11] = target: ARG (Homo sapiens, UniProt P42684)
Chain of ARG (P42684 whole entry): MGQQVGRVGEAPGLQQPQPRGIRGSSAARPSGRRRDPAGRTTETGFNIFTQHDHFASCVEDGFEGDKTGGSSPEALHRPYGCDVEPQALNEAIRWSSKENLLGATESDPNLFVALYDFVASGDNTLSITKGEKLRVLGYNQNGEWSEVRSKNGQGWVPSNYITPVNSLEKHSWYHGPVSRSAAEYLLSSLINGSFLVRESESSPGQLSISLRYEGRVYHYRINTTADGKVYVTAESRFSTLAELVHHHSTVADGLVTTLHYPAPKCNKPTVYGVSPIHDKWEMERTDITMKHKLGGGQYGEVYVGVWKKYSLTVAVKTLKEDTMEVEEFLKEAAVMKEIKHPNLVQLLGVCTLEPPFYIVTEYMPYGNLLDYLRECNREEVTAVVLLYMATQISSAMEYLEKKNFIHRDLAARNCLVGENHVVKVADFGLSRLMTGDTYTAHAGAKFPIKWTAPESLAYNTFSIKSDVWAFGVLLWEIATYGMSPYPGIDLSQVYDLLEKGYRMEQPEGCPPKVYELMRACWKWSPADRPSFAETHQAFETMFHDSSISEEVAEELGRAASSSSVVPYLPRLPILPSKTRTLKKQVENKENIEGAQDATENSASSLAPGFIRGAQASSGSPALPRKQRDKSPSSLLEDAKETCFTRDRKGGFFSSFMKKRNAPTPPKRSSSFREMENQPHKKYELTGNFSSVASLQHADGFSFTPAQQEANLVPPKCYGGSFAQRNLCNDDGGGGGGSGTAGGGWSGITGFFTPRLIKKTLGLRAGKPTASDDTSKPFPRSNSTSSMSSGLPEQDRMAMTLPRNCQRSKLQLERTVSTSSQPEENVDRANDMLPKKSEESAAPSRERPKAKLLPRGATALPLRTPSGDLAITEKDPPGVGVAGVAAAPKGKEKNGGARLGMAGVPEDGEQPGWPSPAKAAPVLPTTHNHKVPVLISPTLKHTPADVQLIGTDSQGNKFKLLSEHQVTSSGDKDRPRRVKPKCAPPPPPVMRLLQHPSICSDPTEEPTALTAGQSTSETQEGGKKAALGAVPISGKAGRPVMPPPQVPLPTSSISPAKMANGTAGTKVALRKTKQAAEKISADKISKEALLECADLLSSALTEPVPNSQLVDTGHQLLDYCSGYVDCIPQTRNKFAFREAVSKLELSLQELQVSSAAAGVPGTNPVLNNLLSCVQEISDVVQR
Procedure: as §1, §2, §3

[12] = target: FRK (Homo sapiens, UniProt P42685)
Procedure: as §1, §2, §3, §4

[13] = target: ABL(T315I) (Homo sapiens, UniProt P00519, T315I)
Procedure: as §1, §2, §3, §4

[14] = target: MST4 (Homo sapiens, UniProt Q9P289)
Procedure: as §1, §2, §3, §4

[15] = target: TEC (Homo sapiens, UniProt P42680)
Procedure: as §1, §2, §3, §4

[16] = target: MAP2K7_Cascade (Homo sapiens, UniProt O14733)
Chain of MAP2K7_Cascade (O14733 whole entry): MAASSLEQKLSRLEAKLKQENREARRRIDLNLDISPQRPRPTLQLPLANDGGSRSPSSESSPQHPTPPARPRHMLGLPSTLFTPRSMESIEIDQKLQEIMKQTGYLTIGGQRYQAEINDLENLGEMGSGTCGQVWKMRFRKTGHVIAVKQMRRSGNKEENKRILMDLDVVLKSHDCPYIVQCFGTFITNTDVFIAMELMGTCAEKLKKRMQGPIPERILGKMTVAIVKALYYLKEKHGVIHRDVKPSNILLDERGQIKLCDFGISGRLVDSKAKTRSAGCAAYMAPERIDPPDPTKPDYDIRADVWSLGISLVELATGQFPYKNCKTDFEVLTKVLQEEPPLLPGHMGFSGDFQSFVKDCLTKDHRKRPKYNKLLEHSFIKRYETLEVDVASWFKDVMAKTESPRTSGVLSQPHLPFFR
Procedure: as §1, §2, §3, §4

[17] = target: PDGFRα (Homo sapiens, UniProt P16234)
Procedure: as §1, §2, §3, §4

[18] = target: MAPKAPK5 (Homo sapiens, UniProt Q8IW41)
Procedure: as §1, §2, §3, §4

[19] = target: EGFR(L861Q) (Homo sapiens, UniProt P00533, L861Q)
Procedure: as §1, §2, §3, §4

[20] = target: ROCK1 (Homo sapiens, UniProt Q13464)
Chain of ROCK1 (Q13464 whole entry): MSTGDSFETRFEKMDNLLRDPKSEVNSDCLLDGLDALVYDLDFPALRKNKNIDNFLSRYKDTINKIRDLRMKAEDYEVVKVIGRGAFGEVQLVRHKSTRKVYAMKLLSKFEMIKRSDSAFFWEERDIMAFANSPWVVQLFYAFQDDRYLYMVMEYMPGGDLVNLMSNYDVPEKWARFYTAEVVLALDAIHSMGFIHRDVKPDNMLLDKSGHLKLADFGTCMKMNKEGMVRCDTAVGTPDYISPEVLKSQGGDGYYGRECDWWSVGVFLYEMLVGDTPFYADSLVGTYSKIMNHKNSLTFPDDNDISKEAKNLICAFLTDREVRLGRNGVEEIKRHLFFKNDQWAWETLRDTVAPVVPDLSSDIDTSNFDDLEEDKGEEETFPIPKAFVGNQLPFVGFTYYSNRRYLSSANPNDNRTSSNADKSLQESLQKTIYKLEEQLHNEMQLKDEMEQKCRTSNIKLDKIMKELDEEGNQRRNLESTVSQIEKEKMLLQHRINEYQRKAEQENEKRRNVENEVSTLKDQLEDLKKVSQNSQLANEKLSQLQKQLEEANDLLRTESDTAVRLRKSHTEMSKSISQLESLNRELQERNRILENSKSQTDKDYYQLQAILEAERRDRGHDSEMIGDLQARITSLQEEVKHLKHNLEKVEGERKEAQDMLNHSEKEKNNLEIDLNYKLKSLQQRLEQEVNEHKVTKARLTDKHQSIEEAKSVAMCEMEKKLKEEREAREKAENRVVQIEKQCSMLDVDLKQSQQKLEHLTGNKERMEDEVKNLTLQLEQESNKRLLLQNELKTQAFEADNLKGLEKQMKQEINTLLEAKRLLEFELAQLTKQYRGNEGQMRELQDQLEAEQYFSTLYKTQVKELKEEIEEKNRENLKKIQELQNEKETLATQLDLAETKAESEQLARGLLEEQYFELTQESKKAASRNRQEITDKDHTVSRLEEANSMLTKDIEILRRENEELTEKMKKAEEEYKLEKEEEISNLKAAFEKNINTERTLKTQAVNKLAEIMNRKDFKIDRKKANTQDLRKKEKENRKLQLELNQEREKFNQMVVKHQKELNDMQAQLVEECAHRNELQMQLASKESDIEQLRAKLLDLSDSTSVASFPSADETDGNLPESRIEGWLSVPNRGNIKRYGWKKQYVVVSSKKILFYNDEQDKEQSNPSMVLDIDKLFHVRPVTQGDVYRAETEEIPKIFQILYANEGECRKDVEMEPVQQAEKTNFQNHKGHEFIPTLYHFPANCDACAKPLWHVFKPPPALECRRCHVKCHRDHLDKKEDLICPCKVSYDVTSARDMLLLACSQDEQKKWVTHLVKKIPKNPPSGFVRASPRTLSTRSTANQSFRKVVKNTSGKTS
Procedure: as §1, §2, §3, §4

[21] = target: SRPK1 (Homo sapiens, UniProt Q96SB4)
Procedure: as §1, §2, §3, §4

[22] = target: PGK (Homo sapiens, UniProt Q13976)
Procedure: as §1, §2, §3, §4

[23] = target: FLT1 (Homo sapiens, UniProt P17948)
Procedure: as §1, §2, §3, §4

[24] = target: p38β (Homo sapiens, UniProt Q15759)
Procedure: as §1, §2, §3, §4

[25] = target: AurB (Homo sapiens, UniProt Q96GD4)
Procedure: as §2, §3, §4

[26] = target: FGFR1(V561M) (Homo sapiens, UniProt P11362, V561M)
Procedure: as §1, §2, §3, §4

[27] = target: PIM1 (Homo sapiens, UniProt P11309)
Chain of PIM1 (P11309 whole entry): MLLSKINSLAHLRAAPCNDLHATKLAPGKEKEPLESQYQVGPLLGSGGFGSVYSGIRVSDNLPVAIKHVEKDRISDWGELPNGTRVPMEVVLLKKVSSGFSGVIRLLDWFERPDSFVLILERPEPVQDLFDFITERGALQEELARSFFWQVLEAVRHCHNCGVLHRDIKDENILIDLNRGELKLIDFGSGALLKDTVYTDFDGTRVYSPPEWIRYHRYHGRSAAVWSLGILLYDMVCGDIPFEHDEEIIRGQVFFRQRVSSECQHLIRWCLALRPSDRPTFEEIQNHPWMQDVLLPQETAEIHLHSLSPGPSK
Procedure: as §1, §2, §3

[28] = target: CK1δ (Homo sapiens, UniProt P48730)
Chain of CK1δ (P48730 whole entry): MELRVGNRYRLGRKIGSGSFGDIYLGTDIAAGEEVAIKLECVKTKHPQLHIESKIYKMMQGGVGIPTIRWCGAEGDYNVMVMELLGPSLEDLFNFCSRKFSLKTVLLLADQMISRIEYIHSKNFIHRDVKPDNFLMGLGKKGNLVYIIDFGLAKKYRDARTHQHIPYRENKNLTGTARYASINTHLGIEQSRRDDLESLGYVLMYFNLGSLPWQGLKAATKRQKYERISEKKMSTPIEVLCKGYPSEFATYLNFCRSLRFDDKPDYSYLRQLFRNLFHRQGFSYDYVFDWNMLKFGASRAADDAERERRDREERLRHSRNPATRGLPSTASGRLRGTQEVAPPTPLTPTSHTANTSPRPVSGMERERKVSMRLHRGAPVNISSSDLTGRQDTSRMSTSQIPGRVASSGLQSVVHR

[29] = target: SGK (Homo sapiens, UniProt O00141)
Procedure: as §1, §2, §3, §4

[30] = target: PKCε (Homo sapiens, UniProt Q02156)
Procedure: as §1, §2, §3, §4

[31] = target: CaMK2γ (Homo sapiens, UniProt Q13555)
Procedure: as §1, §2, §3, §4

[32] = target: AurA/TPX2 (Homo sapiens, UniProt O14965)
Procedure: as §1, §2, §3, §4

[33] = target: EPHA7 (Homo sapiens, UniProt Q15375)
Procedure: as §1, §2, §3, §4

[34] = target: AKT3 (Homo sapiens, UniProt Q9Y243)
Procedure: as §1, §2, §3, §4

[35] = target: CaMK2α (Homo sapiens, UniProt Q9UQM7)
Procedure: as §1, §2, §3, §4

[36] = target: CaMK2β (Homo sapiens, UniProt Q13554)
Procedure: as §1, §2, §3, §4

[37] = target: FGFR2 (Homo sapiens, UniProt P21802)
Procedure: as §1, §2, §3

[38] = target: PKCθ (Homo sapiens, UniProt Q04759)
Procedure: as §1, §2, §3

[39] = target: SPHK1 (Homo sapiens, UniProt Q9NYA1)
Procedure: as §1, §2, §3, §4

[40] = target: MSK1 (Homo sapiens, UniProt O75582)
Procedure: as §1, §2, §3

## CC[C@@]1(c2ccccc2)C2=C(CC(C)(C)CC2=O)Nc2n[nH]cc21 [BRD0705]
[1]
  % Inhibition at 10 μM: 2.1%
[2]
  % Inhibition at 10 μM: −5.6%
[3]
  % Inhibition at 10 μM: −7.9%
[4]; CDK3/CycE1
  % Inhibition at 10 μM: 52.8%
[4]; read-out: IC50 CDK3/CycE1
  IC50: 9.74 µM
[5]
  % Inhibition at 10 μM: 7.7%
[6]
  % Inhibition at 10 μM: 5.6%
[7]
  % Inhibition at 10 μM: 3.1%
[8]
  % Inhibition at 10 μM: 1.8%
[9]
  % Inhibition at 10 μM: 1.8%
[10]
  % Inhibition at 10 μM: 1.7%
[11]
  % Inhibition at 10 μM: 1.1%
[12]
  % Inhibition at 10 μM: 0.9%
[13]
  % Inhibition at 10 μM: 0.7%
[14]
  % Inhibition at 10 μM: −0.4%
[15]
  % Inhibition at 10 μM: −0.4%
[16]
  % Inhibition at 10 μM: −0.6%
[17]
  % Inhibition at 10 μM: −0.8%
[18]
  % Inhibition at 10 μM: −1.0%
[19]
  % Inhibition at 10 μM: −1.8%
[20]
  % Inhibition at 10 μM: −2.0%
[21]
  % Inhibition at 10 μM: −2.0%
[22]
  % Inhibition at 10 μM: −2.1%
[23]
  % Inhibition at 10 μM: −2.6%
[24]
  % Inhibition at 10 μM: −2.7%
[25]
  % Inhibition at 10 μM: −2.8%
[26]
  % Inhibition at 10 μM: −3.2%
[27]
  % Inhibition at 10 μM: −3.4%
[28]
  % Inhibition at 10 μM: −3.9%
[29]
  % Inhibition at 10 μM: −4.4%
[30]
  % Inhibition at 10 μM: −4.5%
[31]
  % Inhibition at 10 μM: −4.7%
[32]
  % Inhibition at 10 μM: −5.3%
[33]
  % Inhibition at 10 μM: −5.3%
[34]
  % Inhibition at 10 μM: −8.3%
[35]
  % Inhibition at 10 μM: −8.6%
[36]
  % Inhibition at 10 μM: −9.0%
[37]
  % Inhibition at 10 μM: −9.2%
[38]
  % Inhibition at 10 μM: −12.0%
[39]
  % Inhibition at 10 μM: −20.5%
[40]
  % Inhibition at 10 μM: −27.1%

## CC(C)(C)Cc1[nH]nc2c1[C@](C)(c1ccccc1)C1=C(CC(C)(C)CC1=O)N2 [BRD3731]
[1]; 10 μM
  % Inhibition 10 μM: 15.9%
[2]; 10 μM
  % Inhibition 10 μM: 39.2%
[3]; 10 μM
  % Inhibition 10 μM: 35.5%
[4]; CDK3/CycE1
  IC50: > 10 µM
[4]; CDK3/CycE1, 10 μM
  % Inhibition 10 μM: 29.2%
[4]; IC50 CDK3/CycE1 / IC50 GSK3β
  Fold Selectivity: >370 fold
[5]; 10 μM
  % Inhibition 10 μM: 16.0%
[6]; 10 μM
  % Inhibition 10 μM: 1.8%
[7]; 10 μM
  % Inhibition 10 μM: 9.3%
[8]; 10 μM
  % Inhibition 10 μM: −2.9%
[9]; 10 μM
  % Inhibition 10 μM: 16.2%
[10]; 10 μM
  % Inhibition 10 μM: 1.4%
[11]; 10 μM
  % Inhibition 10 μM: 6.4%
[12]; 10 μM
  % Inhibition 10 μM: 3.2%
[13]; 10 μM
  % Inhibition 10 μM: −2.4%
[14]; 10 μM
  % Inhibition 10 μM: 6.4%
[15]; 10 μM
  % Inhibition 10 μM: 2.3%
[16]; 10 μM
  % Inhibition 10 μM: 3.0%
[17]; 10 μM
  % Inhibition 10 μM: 6.7%
[18]; 10 μM
  % Inhibition 10 μM: 6.1%
[19]; 10 μM
  % Inhibition 10 μM: 2.7%
[20]; 10 μM
  % Inhibition 10 μM: 0.8%
[21]; 10 μM
  % Inhibition 10 μM: 5.0%
[22]; 10 μM
  % Inhibition 10 μM: 1.9%
[23]; 10 μM
  % Inhibition 10 μM: 3.2%
[24]; 10 μM
  % Inhibition 10 μM: −0.2%
[25]; 10 μM
  % Inhibition 10 μM: −2.3%
[26]; 10 μM
  % Inhibition 10 μM: 0.3%
[27]; 10 μM
  % Inhibition 10 μM: 11.0%
[28]; 10 μM
  % Inhibition 10 μM: 10.7%
[29]; 10 μM
  % Inhibition 10 μM: −0.4%
[30]; 10 μM
  % Inhibition 10 μM: 1.8%
[31]; 10 μM
  % Inhibition 10 μM: −1.2%
[32]; 10 μM
  % Inhibition 10 μM: 3.8%
[33]; 10 μM
  % Inhibition 10 μM: −3.0%
[34]; 10 μM
  % Inhibition 10 μM: −6.4%
[35]; 10 μM
  % Inhibition 10 μM: −4.3%
[36]; 10 μM
  % Inhibition 10 μM: 0.3%
[37]; 10 μM
  % Inhibition 10 μM: 1.9%
[38]; 10 μM
  % Inhibition 10 μM: 12.1%
[39]; 10 μM
  % Inhibition 10 μM: 3.4%
[40]; 10 μM
  % Inhibition 10 μM: 7.4%
